The target of this assay is T1, full length human TPH1 (Homo sapiens, UniProt P17752).
T1 construct: To generate the enzyme, full length human TPH1 is cloned into the plasmid pET20b(+); made in house; host or cells: E. coli
T1 sequence (P17752 1-444): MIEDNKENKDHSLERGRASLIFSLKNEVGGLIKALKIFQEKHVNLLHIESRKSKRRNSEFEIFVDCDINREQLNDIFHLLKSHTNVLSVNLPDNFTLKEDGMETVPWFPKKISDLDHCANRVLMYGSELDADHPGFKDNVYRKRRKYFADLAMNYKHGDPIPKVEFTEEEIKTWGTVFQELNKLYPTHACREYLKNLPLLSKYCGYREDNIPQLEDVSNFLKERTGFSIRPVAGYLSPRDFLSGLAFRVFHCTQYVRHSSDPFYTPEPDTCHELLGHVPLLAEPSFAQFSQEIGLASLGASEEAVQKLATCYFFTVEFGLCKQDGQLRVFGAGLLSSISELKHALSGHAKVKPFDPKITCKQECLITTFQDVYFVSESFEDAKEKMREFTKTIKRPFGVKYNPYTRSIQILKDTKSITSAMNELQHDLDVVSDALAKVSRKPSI
As to the kind of experiment: Biochemical in vitro assay using fluorescence readout (TPH1 enzyme activity). Conditions: Table 1, mean where determined several times. An outline of the steps:
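IC50 (mean of repeats) derived from 5-hydroxy-L-tryptophan fluorescence at 540 nm (300 nm excitation) relative to vehicle, after perchloric acid stop. Reaction: 60 min, 15° C., pH 7.6 Tris-HCl, 40 μM L-tryptophan, 100 μM 6-methyltetrahydropterine, DTT, catalase, with 40-80 nM purified full-length human TPH1 from E. coli.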
The molecule `Cc1nc(C)c(C2c3c(nc4n3CCCC4)CCN2C(=O)COc2ccc(C#N)cc2Cl)s1` (stereo not shown) [Example 1.10.10, 3-chloro-4-(2-(1-(2,4-dimethylthiazol-5-yl)-3,4,6,7,8,9-hexahydroimidazo[1,2-a:5,4-c′]dipyridin-2(1H)-yl)-2-oxoethoxy)benzonitrile] displayed an IC50 of 0.207 µM.

For the molecule `CNC(=O)c1ccc(OCC(=O)N2CCc3nc4n(c3C2c2sc(C)nc2C)CCCC4)c(Cl)n1` (stereo not shown) [Example 1.10.4, 6-chloro-5-(2-(1-(2,4-dimethylthiazol-5-yl)-3,4,6,7,8,9-hexahydroimidazo[1,2-a:5,4-c′]dipyridin-2(1H)-yl)-2-oxoethoxy)-N-methylpicolinamide], the midpoint of inhibition, the IC50, lay at 0.036 µM.

Molecule `O=C(NC1CC1)c1ccc(OCC(=O)N2CCc3nc4n(c3C2c2ccc(Cl)cc2F)CCCC4)c(Cl)n1` (stereo not shown) [Example 1.1.6, 6-chloro-5-(2-(1-(4-chloro-2-fluorophenyl)-3,4,6,7,8,9-hexahydroimidazo[1,2-a:5,4-c′]dipyridin-2(1H)-yl)-2-oxoethoxy)-N-cyclopropylpicolinamide] displayed an IC50 of 0.019 µM.

Turning to `CS(=O)(=O)Nc1ccc(OCC(=O)N2CCc3nc4n(c3C2c2ccc(Cl)cc2F)CCS4)c(Cl)n1` (stereo not shown) [Example 4.1.1, N-(6-chloro-5-(2-(5-(4-chloro-2-fluorophenyl)-2,3,7,8-tetrahydrothiazolo[2′,3′:2,3]imidazo[4,5-c]pyridin-6(5H)-yl)-2-oxoethoxy)pyridin-2-yl)methanesulfonamide], inhibition was half-maximal at 0.019 µM (IC50).

In turn, `CC(=O)N1CCn2c(nc3c2C(c2ccc(C4CC4)cc2F)N(C(=O)COc2ccc(N4CCOCC4)nc2Cl)CC3)C1` (stereo not shown) [Example 5.2.8, 1-(7-acetyl-1-(4-cyclopropyl-2-fluorophenyl)-3,4,6,7,8,9-hexahydropyrido[4′,3′:4,5]imidazo[1,2-a]pyrazin-2(1H)-yl)-2-((2-chloro-6-morpholinopyridin-3-yl)oxy)ethanone] gave an IC50 of 0.005 µM. This IC50 is about 3.8-fold lower than that of the molecule before.

`Cc1nc(C)c(C2c3c(nc4n3CCCC4)CCN2C(=O)COc2ccc(C#N)nc2Cl)s1` (stereo not shown) [Example 1.10.6, 6-chloro-5-(2-(1-(2,4-dimethylthiazol-5-yl)-3,4,6,7,8,9-hexahydroimidazo[1,2-a:5,4-c′]dipyridin-2(1H)-yl)-2-oxoethoxy)picolinonitrile] displayed an IC50 of 0.077 µM.

For `O=C(NC1CC1)c1ccc(OCC(=O)N2CCc3nc4n(c3C2c2ccc(C3CC3)cc2F)CCCC4)c(Cl)n1` (stereo not shown) [Example 1.8.5, 6-chloro-N-cyclopropyl-5-(2-(1-(4-cyclopropyl-2-fluorophenyl)-3,4,6,7,8,9-hexahydroimidazo[1,2-a:5,4-c′]dipyridin-2(1H)-yl)-2-oxoethoxy)picolinamide], the IC50 came to 0.024 µM.

In turn, `Cc1ccc(C2c3c(nc4n3CCOC4)CCN2C(=O)COc2ccc(C(=O)N(C)C)nc2Cl)c(F)c1` (stereo not shown) [Example 6.5.1, 6-chloro-5-(2-(6-(2-fluoro-4-methylphenyl)-3,4,8,9-tetrahydro-1H-pyrido[4′,3′:4,5]imidazo[2,1-c][1,4]oxazin-7(6H)-yl)-2-oxoethoxy)-N,N-dimethylpicolinamide] returned an IC50 of 0.007 µM.

Molecule `CC(C)N(C)C(=O)c1ccc(OCC(=O)N2CCc3nc4n(c3C2c2ccc(Cl)cc2F)CCCC4)c(Cl)n1` (stereo not shown) [Example 1.1.8, 6-chloro-5-(2-(1-(4-chloro-2-fluorophenyl)-3,4,6,7,8,9-hexahydroimidazo[1,2-a:5,4-c′]dipyridin-2(1H)-yl)-2-oxoethoxy)-N-isopropyl-N-methylpicolinamide] registered an IC50 of 0.055 µM.

In the case of `Cc1ccc(C2c3c(nc4n3CCCC4)CCN2C(=O)COc2ccc(N3CCN(C)CC3)nc2Cl)c(F)c1F` (stereo not shown) [Example 1.9.4, 2-((2-chloro-6-(4-methylpiperazin-1-yl)pyridin-3-yl)oxy)-1-(1-(2,3-difluoro-4-methylphenyl)-3,4,6,7,8,9-hexahydroimidazo[1,2-a:5,4-c′]dipyridin-2(1H)-yl)ethanone], half-maximal inhibition (IC50) required 0.018 µM.

In general, IC50 refers to the concentration needed to halve the response being measured.
